The compounds below were run against Gamma-secretase (assay: Inhibition of gamma-secretase (unknown origin) expressed in CHO cells expressing APP assessed as inhibition of amyloid beta 42 production).
Assay type: cell-based, Homo sapiens

| Structure (SMILES) | IC50 [µM] |
| --- | --- |
| C#CCCCCNC(=O)[C@H](Cc1ccc(C(=O)c2ccccc2)cc1)NC(=O)[C@H](CC(C)C)NC(=O)[C@H](Cc1ccccc1)C[C@@H](O)[C@H](Cc1ccccc1)NC(=O)c1ccc(C(=O)c2ccccc2)cc1 | 0.18 |
| C#CCCCC(=O)Nc1ccc(C(=O)c2ccc(NC(=O)COCCOCCOCC(=O)NCCCOCCOCCOCCCNC(=O)[C@H](Cc3ccccc3)NC(=O)[C@H](CC(C)C)NC(=O)[C@H](Cc3ccccc3)C[C@@H](O)[C@H](Cc3ccccc3)NC(=O)OC(C)(C)C)cc2)cc1 | 0.023 |
| C#CCOc1ccc(C(=O)c2ccc(OCCOCCOCCNC(=O)[C@H](Cc3ccc(C(=O)c4ccccc4)cc3)NC(=O)[C@H](CC(C)C)NC(=O)[C@H](Cc3ccccc3)C[C@@H](O)[C@H](Cc3ccccc3)NC(=O)OC(C)(C)C)cc2)cc1 | 0.0015 |
| C#CCCCC(=O)Nc1ccc(C(=O)c2ccc(NC(=O)COCCOCCOCC(=O)NCCCCCNC(=O)[C@H](Cc3ccc(C(=O)c4ccccc4)cc3)NC(=O)[C@H](CC(C)C)NC(=O)[C@H](Cc3ccccc3)C[C@@H](O)[C@H](Cc3ccccc3)NC(=O)OC(C)(C)C)cc2)cc1 | 0.033 |
| C#CCOc1ccc(C(=O)c2ccc(OCCOCCOCCNC(=O)[C@H](Cc3ccccc3)NC(=O)[C@H](CC(C)C)NC(=O)[C@H](Cc3ccccc3)C[C@@H](O)[C@H](Cc3ccccc3)NC(=O)OC(C)(C)C)cc2)cc1 | 0.001 |
| C#CCCCC(=O)Nc1ccc(C(=O)c2ccc(NC(=O)COCCOCCOCC(=O)NCCCOCCOCCOCCCNC(=O)[C@H](Cc3ccc(C(=O)c4ccccc4)cc3)NC(=O)[C@H](CC(C)C)NC(=O)[C@H](Cc3ccccc3)C[C@@H](O)[C@H](Cc3ccccc3)NC(=O)OC(C)(C)C)cc2)cc1 | 0.02 |

Continued, values first:

| IC50 [µM] | Structure (SMILES) |
| --- | --- |
| > 1 | C#CCCCCNC(=O)[C@H](Cc1ccccc1)NC(=O)[C@H](CC(C)C)NC(=O)[C@H](Cc1ccccc1)C[C@@H](O)[C@H](Cc1ccccc1)NC(=O)c1ccc(C(=O)c2ccccc2)cc1 |
| 0.012 | C#CCCCC(=O)Nc1ccc(C(=O)c2ccc(NC(=O)COCCOCCOCC(=O)NCCCCCNC(=O)[C@H](Cc3ccccc3)NC(=O)[C@H](CC(C)C)NC(=O)[C@H](Cc3ccccc3)C[C@@H](O)[C@H](Cc3ccccc3)NC(=O)OC(C)(C)C)cc2)cc1 |
